Read-outs that look alike come from different tables or passages of the source.

What is called inhibition is the relative decrease from the control value, in per cent.

Assay in all cases: HotSpot kinase profiling
What all share (type): biochemical

The target of one assay is T1, CTK/MATK (Homo sapiens, UniProt P42679).
T1 construct: purchased Reaction Biology Corp
T1 sequence (P42679 1-507): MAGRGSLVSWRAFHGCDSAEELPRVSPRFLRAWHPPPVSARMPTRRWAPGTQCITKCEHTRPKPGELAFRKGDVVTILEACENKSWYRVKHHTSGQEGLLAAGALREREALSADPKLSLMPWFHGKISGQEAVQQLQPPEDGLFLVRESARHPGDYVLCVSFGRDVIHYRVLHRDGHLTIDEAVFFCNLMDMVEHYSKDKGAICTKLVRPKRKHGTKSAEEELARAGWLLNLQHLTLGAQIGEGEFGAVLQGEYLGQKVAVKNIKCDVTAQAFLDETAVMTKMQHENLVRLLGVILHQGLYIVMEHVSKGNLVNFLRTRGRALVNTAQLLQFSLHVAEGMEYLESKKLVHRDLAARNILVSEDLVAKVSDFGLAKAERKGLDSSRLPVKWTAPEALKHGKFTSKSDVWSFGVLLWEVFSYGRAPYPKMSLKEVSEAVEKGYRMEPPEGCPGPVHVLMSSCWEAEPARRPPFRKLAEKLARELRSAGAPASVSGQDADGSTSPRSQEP
The procedure, abridged:
(§1)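 Percent inhibition, averaged when run more than once and referenced to a DMSO negative control, came from a radioactive filter-binding readout on P81 paper. Reactions of kinase with freshly made substrate and cofactors ran for 2 h at room temperature.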

Another assay has as its target T2, DMPK (Homo sapiens, UniProt Q09013).
T2 construct: purchased Reaction Biology Corp
T2 sequence (Q09013 1-629): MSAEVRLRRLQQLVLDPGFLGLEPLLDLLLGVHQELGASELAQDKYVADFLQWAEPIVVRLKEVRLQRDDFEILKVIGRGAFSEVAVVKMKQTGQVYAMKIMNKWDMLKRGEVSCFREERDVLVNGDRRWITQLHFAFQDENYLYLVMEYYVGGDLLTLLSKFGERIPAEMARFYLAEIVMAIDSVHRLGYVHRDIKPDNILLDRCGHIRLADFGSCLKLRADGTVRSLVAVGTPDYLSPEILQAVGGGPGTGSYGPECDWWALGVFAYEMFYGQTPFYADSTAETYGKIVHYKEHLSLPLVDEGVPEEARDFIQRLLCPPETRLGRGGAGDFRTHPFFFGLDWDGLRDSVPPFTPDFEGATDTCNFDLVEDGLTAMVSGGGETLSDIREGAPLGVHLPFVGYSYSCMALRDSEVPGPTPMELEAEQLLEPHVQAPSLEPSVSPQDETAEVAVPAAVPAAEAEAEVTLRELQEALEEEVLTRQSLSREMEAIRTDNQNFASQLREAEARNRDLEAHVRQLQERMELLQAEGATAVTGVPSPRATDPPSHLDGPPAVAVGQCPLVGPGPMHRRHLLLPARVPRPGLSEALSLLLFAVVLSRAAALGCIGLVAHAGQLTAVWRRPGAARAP
Summed up:
as §1

For the next assay, the target named is T3, ULK2 (Homo sapiens, UniProt Q8IYT8).
T3 construct: purchased Reaction Biology Corp
T3 sequence (Q8IYT8 1-1036): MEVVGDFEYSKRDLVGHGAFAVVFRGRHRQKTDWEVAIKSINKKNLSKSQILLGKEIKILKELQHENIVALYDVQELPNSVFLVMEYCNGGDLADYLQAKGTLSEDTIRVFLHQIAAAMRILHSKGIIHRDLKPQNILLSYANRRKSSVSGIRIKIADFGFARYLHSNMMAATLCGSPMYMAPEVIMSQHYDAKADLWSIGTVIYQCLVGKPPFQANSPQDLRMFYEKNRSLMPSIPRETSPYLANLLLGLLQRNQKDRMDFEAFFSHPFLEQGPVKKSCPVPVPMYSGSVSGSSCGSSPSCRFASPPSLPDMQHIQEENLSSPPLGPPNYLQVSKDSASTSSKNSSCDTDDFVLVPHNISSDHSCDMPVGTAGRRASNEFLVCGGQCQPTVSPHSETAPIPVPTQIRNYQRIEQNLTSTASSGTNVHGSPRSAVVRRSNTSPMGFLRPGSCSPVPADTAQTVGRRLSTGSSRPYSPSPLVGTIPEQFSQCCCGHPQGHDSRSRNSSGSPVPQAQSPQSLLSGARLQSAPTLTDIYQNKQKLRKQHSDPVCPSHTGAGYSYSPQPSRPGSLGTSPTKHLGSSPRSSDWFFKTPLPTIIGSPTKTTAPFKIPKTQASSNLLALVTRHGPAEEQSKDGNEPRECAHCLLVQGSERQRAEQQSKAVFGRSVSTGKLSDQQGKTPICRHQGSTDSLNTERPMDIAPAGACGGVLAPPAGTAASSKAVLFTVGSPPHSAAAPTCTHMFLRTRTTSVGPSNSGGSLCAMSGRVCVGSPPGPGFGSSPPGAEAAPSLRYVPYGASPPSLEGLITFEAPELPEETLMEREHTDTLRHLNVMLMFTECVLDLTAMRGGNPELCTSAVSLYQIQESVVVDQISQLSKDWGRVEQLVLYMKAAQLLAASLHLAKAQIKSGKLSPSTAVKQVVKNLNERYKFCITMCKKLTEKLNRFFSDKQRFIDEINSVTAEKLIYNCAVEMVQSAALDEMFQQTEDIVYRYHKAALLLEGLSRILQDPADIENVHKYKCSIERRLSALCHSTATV
The procedure, abridged: as §1

Setting [1] is: read-out: % Enzyme Activity (relative to DMSO controls) Run 1.
The mark [2] stands for this setting: read-out: % Enzyme Activity (relative to DMSO controls) Run 2.

On to `C=CC(=O)Nc1cccc(Nc2nc(Nc3ccc(OCCOC)c(F)c3)ncc2F)c1` [Compound 2], for which the inhibition at 3 µM against CTK/MATK was -3.03%; at DMPK, -3.25%; on ULK2, -5.74%. Further, the remaining activity at 3 µM stood at 102% at CTK/MATK (setting [1]); 104% on CTK/MATK (setting [2]); 104% on DMPK (setting [1]); 102% on DMPK (setting [2]); 102% at ULK2 (setting [1]); 109% at ULK2 (setting [2]).

The record behind these values is patent US9492471B2, “Methods of treating a disease or disorder associated with Bruton'S Tyrosine Kinase” (Celgene Avilomics Research, Inc., priority 2013, dated 2016).
